pEC50: −log10 of the molar value. Several values for one entry are separate records, joined by “and”; a condition that tells them apart may be missing. Equal values may be shown once. Entries after “also recorded” stand apart in the source; their conditions may differ. Bridge positions count the residues as written; N and C are the ends. Ends that are not written are not given here.
Key:
OR1 [1] = molecular target: T1, OR1 (Homo sapiens, UniProt O43613); design: host or cells: HEK-293T; conditions: Lang et al., 2004; cited from earlier work
T1 sequence (O43613 1-425): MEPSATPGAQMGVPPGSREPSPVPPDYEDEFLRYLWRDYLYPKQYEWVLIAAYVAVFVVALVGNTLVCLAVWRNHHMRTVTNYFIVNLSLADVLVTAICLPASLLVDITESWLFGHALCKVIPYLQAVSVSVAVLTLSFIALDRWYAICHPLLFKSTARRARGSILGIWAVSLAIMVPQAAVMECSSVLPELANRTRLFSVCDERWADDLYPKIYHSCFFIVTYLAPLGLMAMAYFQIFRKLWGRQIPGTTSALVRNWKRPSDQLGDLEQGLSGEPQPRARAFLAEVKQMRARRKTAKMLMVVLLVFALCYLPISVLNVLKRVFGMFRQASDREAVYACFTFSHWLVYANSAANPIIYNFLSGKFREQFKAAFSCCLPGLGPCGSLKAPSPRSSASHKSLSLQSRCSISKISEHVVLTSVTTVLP

OR2 [2] = molecular target: T2, OR2 (Homo sapiens, UniProt O43614); design: host or cells: HEK-293T; conditions: Lang et al., 2004; cited from earlier work
T2 sequence (O43614 1-444): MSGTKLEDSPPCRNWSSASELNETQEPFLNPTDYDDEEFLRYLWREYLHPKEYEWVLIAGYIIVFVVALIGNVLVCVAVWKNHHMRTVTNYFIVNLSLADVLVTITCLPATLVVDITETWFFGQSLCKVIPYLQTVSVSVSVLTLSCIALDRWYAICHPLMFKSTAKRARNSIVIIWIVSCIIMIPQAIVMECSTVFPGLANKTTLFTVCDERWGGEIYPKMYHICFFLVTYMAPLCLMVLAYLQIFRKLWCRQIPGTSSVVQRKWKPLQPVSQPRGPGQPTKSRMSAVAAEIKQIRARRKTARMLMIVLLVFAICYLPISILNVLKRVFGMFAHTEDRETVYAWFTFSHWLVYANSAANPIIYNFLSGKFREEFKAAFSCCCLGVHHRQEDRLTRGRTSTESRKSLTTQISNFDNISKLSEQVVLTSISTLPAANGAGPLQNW

OX-KO mice [3] = assay: Wakefulness and sleep (EEG/EMG) after intracerebroventricular infusion in OX-KO mice; format: in vivo, mouse; conditions: ICV 160 μM at 5 μL/h, ZT0-6, vs vehicle (artificial cerebrospinal fluid)
Method: Wakefulness, non-REM sleep (NREM) and REM sleep are expressed as a percentage of the recording time. V: vehicle (artificial cerebrospinal fluid). OX-D: OX-DRAGON. TAT: TAT peptide. ZT: Zeitgeber time (i.e., time since lights were switched on). Black bars: intracerebroventricular infusion (5 μL/h from ZT0 to ZT6, with vehicle or peptides at 160 μM). * and †: P<0.05, Wilcoxon test with exact significance (Monte Carlo method) vs. vehicle (with correction for false-discovery rate) or vs. OX-DRAGON, respectively.
(§1) A biocompatible acrylic resin protection for was applied to the animal's head to protect the electrode and cannula connectors. After 1-2 weeks of post-operative recovery, the animals were connected via rotating electrical and fluid connectors respectively to thin electrical cables and to a catheter, itself connected to a precision pump for ICV infusion. The rotating connectors, cables and catheter were supported by a balanced arm to allow the animals full freedom of movement during the recordings, which were made with light: dark cycle of 12:12 hours. Wakefulness, non-REM sleep, and REM sleep were assessed based on EEG and EMG tracings with a technique previously published in detail (Bastianini et al., 2011).

OX-KO mice [4] = assay: Wakefulness and sleep (EEG/EMG) after subcutaneous injection in OX-KO mice; format: in vivo, mouse; conditions: SC single injection at ZT0, 160 μM in 1 mL saline, vs vehicle; for time spent in REM sleep: light and dark period
Method: Wakefulness, non-REM sleep (NREM) and REM sleep are expressed as a percentage of the recording time. V: vehicle (saline). OX-D: OX-DRAGON. TAT: TAT peptide. ZT: Zeitgeber Time (i.e., time since lights were switched on). Each peptide was injected subcutaneously at the concentration of […] in 1 mL of vehicle at ZT0. *: P<0.05, Wilcoxon test with exact significance (Monte Carlo method) vs. vehicle with correction for false-discovery rate.
as §1
Experiments were performed as in step 3 above, except for the absence of the ICV cannula implant.

OX-KO mice [5] = assay: Cataplexy-like episodes after subcutaneous injection in OX-KO mice; format: in vivo, mouse; conditions: SC single injection at ZT0, 160 μM in 1 mL saline; for total duration of cataplexy-like episodes during the dark period: vs vehicle
Excerpt: D-CLS: total duration of cataplectic-like episodes during the dark period. V: vehicle (saline). OX-D: OX-DRAGON. TAT: TAT peptide. […] […] The dots indicate values in individual mice.
Such episodes, identified as direct transitions from wakefulness to REM sleep (Scammell et al., 2009), during the dark period are 100% specific for cataplexy in mouse models of NT1 (Fujiki et al., 2009). Correspondence between such events on polysomnographic tracings and abrupt behavioural transitions to a state of immobility was confirmed based on synchronized video tracings in a subset of mice (n=4) during treatment with vehicle and with OX-DRAGON.

[6] = Solubility of the peptide; format: physicochemical
Method: Two batches of OX-DRAGON were synthesized by an external commercial entity (Genscript, (www.genscript.com), with purity ≥98.0% and net peptide content ≥68.0% (FIG. 2). The peptide is highly soluble […] in water, DPBS and DMSO.

OR2 [7] = molecular target: T2, OR2; assay: Intracellular Ca2+ response (Fluo-4 Direct Calcium Assay) in Neuro-2a cells expressing human OR2; format: cell-based; design: expressed in transfected cells; conditions: OX-DRAGON 8.5 μM vs OXA 14.8 μM; triplicate; normalized to maximal responses
Excerpt: (§2) Panel A: L, ladder DNA. Panel B: Data are reported as mean values and standard errors of the mean on triplicate measurements. The dots indicate the individual measures. […] The arrows indicate the time of the microinjection.
(§3) Selective expression of the OR1- or OR2-coding genes in the corresponding cell lines and the absence of expression of OR1 and OR2 in WT cells were confirmed by real-time PCR from RNA extracted from the individual DNAse-treated and back-transcribed cells (FIG. 3A). Responses in terms of intracellular [Ca^2+] were assessed in triplicate using Fluo-4 Direct Calcium Assay (Invitrogen) and a Tekan Spark microplate reader, normalizing the results obtained to the maximal responses.

WT Neuro-2a cells = assay: Immunofluorescence (anti-OXA 16-33 amide) internalization in WT Neuro-2a cells; format: cell-based, mouse; conditions: 74 μM, 1 hour, confocal microscopy
Excerpt: The panels show immunofluorescence imaging (rabbit anti-OXA 16-33 amide primary antibody, 1:200, Phoenix peptides #H-003-36) in Neuro-2a cells without expression of OR1 and OR2. […] The presence of diffuse TRITC fluorescence at the cytoplasmic level was confirmed in confocal microscopy (panel A). […] Calibration bars: 50 μm.
Because crossing the BBB requires the ability to cross endothelial cell membranes, these experiments support the ability of OX-DRAGON to cross the BBB and reach brain tissue after systemic administration.

OR1 [8] = molecular target: T1, OR1; assay: Concentration-response reporter assay kit (Cayman n. 600240/600250) on HEK-293T cells, OR1; format: cell-based; design: host or cells: HEK-293T
OR1 [9] = molecular target: T1, OR1; assay: Intracellular Ca2+ response (Fluo-4 Direct Calcium Assay) in Neuro-2a cells expressing human OR1; format: cell-based; design: expressed in transfected cells; conditions: OX-DRAGON 8.5 μM vs OXA 14.8 μM; triplicate; normalized to maximal responses
Excerpt: as §2, §3

[10] = test system: control Neuro-2a cells that do not express such receptors (wild-type, WT); assay: Intracellular Ca2+ response in control wild-type Neuro-2a cells without OR1/OR2; format: cell-based, mouse; conditions: Neuro-2a cells without OR1 and OR2
Method: as §3

OR2 [11] = molecular target: T2, OR2; assay: cell-based

| Substance | REM sleep time (OX-KO mice [3]) | non-REM sleep time (OX-KO mice [3]) | wakefulness time (OX-KO mice [3]) | time spent awake (OX-KO mice [4]) | time spent in non-REM sleep (OX-KO mice [4]) | time spent in REM sleep (OX-KO mice [4]) | total duration of cataplexy-like episodes during the dark period (OX-KO mice [5]) | also measured |
| --- | --- | --- | --- | --- | --- | --- | --- | --- |
| PDCCRQKTCSCRLYELLHGAGNHAAGILTL [4-33 truncated sequence of OXA] | – | – | – | – | – | – | – | EC50 on OR1 relative to the native OXA protein (OR1 [1]): approximately 1/7; EC50 on OR2 relative to the native OXA protein (OR2 [2]): approximately 1/7 |
| YGRKKRRQRRR [TAT, cell penetrating TAT peptide of type-1 human immunodeficiency virus (HIV), reference compound] | significant reduction in REM sleep time during the dark period | did not evoke significant effects | did not evoke significant effects | did not result in significant effects | did not result in significant effects | did not result in significant effects | not replicated | – |
| YGRKKRRQRRRPDCCRQKTCSCRLYELLHGAGNHAAGILTL-NH2 (disulfide 14-20, 15-22) [OX-DRAGON] | marked reduction in REM sleep time | decreased non-REM sleep time | increased wakefulness time | without exerting significant effects | without exerting significant effects | significantly decrease | significantly decrease | solubility ([6]; in DMSO): 10000 µg/mL; solubility ([6]; in DPBS): 10000 µg/mL; solubility ([6]; in water): 10000 µg/mL; intracellular [Ca2+] response of OR2-expressing cells (OR2 [7]): close to the maximal ones evoked by OXA; internalization into cells (intracellular/cytoplasmic fluorescence signal) (WT Neuro-2a cells): cytoplasmic signal of diffused fluorescence; also recorded: presence of TRITC fluorescence signal at the intracellular level; pEC50 (OR1 [8]; HEK-293T cells, reporter assay, Hill equation fit): 7.17; OR1/OR2 EC50 ratio (OR1 [8]; receptor selectivity, EC50 OR1 / EC50 OR2): 6.47 and 6.5; intracellular [Ca2+] response of OR1-expressing cells (OR1 [9]): close to the maximal ones evoked by OXA; duration of individual cataplexy-like episodes (OX-KO mice [5]): no significant changes; number of cataplexy-like episodes (OX-KO mice [5]; P=0.034 one-tailed Wilcoxon): reduction in the number of cataplexy-like episodes; intracellular [Ca2+] response of WT cells [10]: absence of significant effects; pEC50 (OR2 [11]): 7.98 |
